Key:
PCB490-4 = system: PCB490-4 (human epithelioid sarcoma primary culture)
Description: (§1)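 Roche open-access kinase inhibitor screen (223 compounds) on human epithelioid sarcoma primary cultures from three spatially distinct regions of tumor PCB490. 384-well plates, 72 h, CellTiter-Glo viability; IC50 by Hill curve fit. 100000 nM = no IC50 reached. Compound ids carry a plate-well prefix, which is stripped.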

PCB490-5 = system: PCB490-5 (human epithelioid sarcoma primary culture)
Description: as §1

PCB490-3 = system: PCB490-3 (human epithelioid sarcoma primary culture)
Description: as §1

| SMILES | IC50 cell viability (PCB490-4) [µM] | IC50 cell viability (PCB490-5) [µM] | IC50 cell viability (PCB490-3) [µM] |
| --- | --- | --- | --- |
| COc1ccc(O)c(C(=O)c2ccc(C(=O)O[C@@H]3CCCNC[C@H]3NC(=O)c3ccncc3)cc2)c1F | > 100 | > 100 | > 100 |
| C[C@H](O)CNc1cc(-c2[nH]c3cccnc3c2-c2ccc(F)cc2)ccn1 | > 100 | > 100 | > 100 |
| N#Cc1ccc(C(=O)c2cnn(-c3ccc(F)cc3)c2N)cc1 | > 100 | > 100 | > 100 |
| COc1ccc(C2=C(c3cn(C)c4ccccc34)C(=O)NC2=O)cc1OC | > 100 | > 100 | > 100 |
| COc1ccc2c(C3=C(c4cn(C)c5ccccc45)C(=O)NC3=O)cn(C)c2c1 | > 100 | > 100 | > 100 |
| Nc1c(C(=O)c2cccc(-c3cccnc3)c2)cnn1-c1ccc(F)cc1 | > 100 | > 100 | > 100 |
| CN[C@H](C#Cc1c(F)ccc2c1/C(=C/c1[nH]ccc1OC)C(=O)N2)CO | > 100 | 1.77 | > 100 |
| COc1cc[nH]c1/C=C1\C(=O)Nc2ccc([N+](=O)[O-])c(N3CC[C@@H](O)C3)c21 | 7.83 | 4.71 | 4.87 |
| O=C1NC(=NCCc2cccc(Cl)c2)S/C1=C\c1ccc2ncccc2c1 | > 100 | > 100 | > 100 |
| Cc1[nH]nc2c1N=C(c1ccccc1Cl)c1cc([N+](=O)[O-])ccc1N2 | > 100 | > 100 | > 100 |
| Nc1c(C(=O)c2ccccc2)cnn1-c1ccc(F)cc1 | > 100 | > 100 | > 100 |
| COc1ccc(OC)c(C2=C(c3cn(C)c4ccccc34)C(=O)NC2=O)c1 | > 100 | > 100 | > 100 |
| Nc1c(C(=O)c2ccc(CCCN3CCOCC3)cc2)cnn1-c1ccc(F)cc1 | > 100 | > 100 | > 100 |
| Fc1ccc(-c2c(-c3ccncc3)[nH]c3cccnc23)cc1 | > 100 | > 100 | > 100 |
| N#Cc1cccc(C(=O)c2cnn(-c3ccc(F)cc3)c2N)c1 | > 100 | > 100 | > 100 |
| Cn1cc(C2=C(c3cn(C)c4c(N)cccc34)C(=O)NC2=O)c2ccccc21 | > 100 | > 100 | > 100 |
| O=C1NC(O)C(c2c[nH]c3ccccc23)=C1c1c[nH]c2ccccc12 (stereo not given) | > 100 | > 100 | > 100 |
| C[C@@H](c1ccccc1)[C@@H](C(=O)Nc1ccc(I)cc1F)N1C(=O)N[C@H](c2ccc(OC[C@H](O)CO)cc2)C1=O | > 100 | > 100 | > 100 |
| COc1cccc(F)c1C(=O)c1cnc(NC2CCN(S(C)(=O)=O)CC2)nc1N | > 100 | > 100 | > 100 |
| Cn1cc(C2=C(Sc3ccccc3)C(=O)NC2=O)c2ccccc21 | > 100 | > 100 | > 100 |
| O=C1NC(=N[C@H](CO)Cc2ccccc2)S/C1=C\c1ccc2ncccc2c1 | > 100 | > 100 | > 100 |
| Cn1cc(C2=C(c3cn(CCCN/C(N)=N/[N+](=O)[O-])c4ccccc34)C(=O)NC2=O)c2ccccc21 | > 100 | > 100 | > 100 |
| O=c1c(Oc2ccc(F)cc2F)cc2cnc(NC3CCOCC3)nc2n1C1CCS(=O)(=O)CC1 | > 100 | > 100 | > 100 |
| Cn1cc(C2=C(c3ccsc3)C(=O)NC2=O)c2ccccc21 | > 100 | > 100 | > 100 |
| Cn1c(=O)c(Oc2ccccc2F)cc2cnc(NC3CCOCC3)nc21 | > 100 | > 100 | > 100 |
| Cn1cc(C2=C(n3ccc4ccccc43)C(=O)NC2=O)c2ccccc21 | > 100 | > 100 | > 100 |
| Cn1cc(C2=C(c3cn(CCO)c4ccccc34)C(=O)NC2=O)c2ccccc21 | > 100 | > 100 | > 100 |
| Cn1cc(C2=C(c3cccc([N+](=O)[O-])c3)C(=O)NC2=O)c2ccccc21 | > 100 | > 100 | > 100 |
| COc1cc[nH]c1/C=C1\C(=O)Nc2ccc(F)c(C#CC3(O)CCNCC3)c21 | 1 | 0.67 | > 100 |
| Fc1ccc(-c2c(-c3ccncc3)n(CCN3CCOCC3)c3cccnc23)cc1 | > 100 | > 100 | > 100 |

— the supplement of paper PMC6580486
